According to paper PMC4979471 (Cell Death Discovery, 2015):
Read-outs that look alike come from different tables or passages of the source.

How the values were obtained:
Assay in all cases: Kinase selectivity, P33-radiolabeled assay
Type in all cases: biochemical
Conditions in all cases: 10 μM ATP
PKCzeta = molecular target: T1, PKCzeta (Homo sapiens, UniProt Q05513)
T1 construct: purchased Reaction Biology Corp
T1 sequence (Q05513 1-592): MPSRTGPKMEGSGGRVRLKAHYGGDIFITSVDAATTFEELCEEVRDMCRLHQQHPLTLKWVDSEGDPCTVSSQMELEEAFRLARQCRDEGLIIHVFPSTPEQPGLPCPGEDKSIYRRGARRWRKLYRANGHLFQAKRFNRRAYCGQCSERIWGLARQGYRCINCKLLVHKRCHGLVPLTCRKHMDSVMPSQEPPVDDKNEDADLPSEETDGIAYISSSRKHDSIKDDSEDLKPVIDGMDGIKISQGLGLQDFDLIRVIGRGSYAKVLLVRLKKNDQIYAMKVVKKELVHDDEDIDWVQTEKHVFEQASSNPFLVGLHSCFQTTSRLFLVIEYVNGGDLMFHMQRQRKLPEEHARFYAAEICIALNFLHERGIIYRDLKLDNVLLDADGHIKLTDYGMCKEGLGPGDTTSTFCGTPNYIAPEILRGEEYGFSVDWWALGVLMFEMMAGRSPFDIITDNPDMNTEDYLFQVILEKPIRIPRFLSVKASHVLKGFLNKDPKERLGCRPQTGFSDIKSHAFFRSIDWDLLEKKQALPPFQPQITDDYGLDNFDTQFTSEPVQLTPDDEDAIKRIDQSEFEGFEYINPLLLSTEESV
Outline: (§1)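 Activity relative to DMSO controls (%) was measured for compound at 10 μM. Assays ran at 10 μM ATP, in duplicate.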

ABL1 = molecular target: T2, ABL1 (Homo sapiens, UniProt P00519)
T2 construct: purchased Reaction Biology Corp
Outline: as §1

SSTK/TSSK6 = molecular target: T3, SSTK/TSSK6 (Homo sapiens, UniProt Q9BXA6)
T3 construct: purchased Reaction Biology Corp
Outline: as §1

PAK5 = molecular target: T4, PAK5 (Homo sapiens, UniProt Q9P286)
T4 construct: purchased Reaction Biology Corp
Outline: as §1

PDGFRb = molecular target: T5, PDGFRb (Homo sapiens, UniProt P09619)
T5 construct: purchased Reaction Biology Corp
Outline: as §1

SGK2 = molecular target: T6, SGK2 (Homo sapiens, UniProt Q9HBY8)
T6 construct: purchased Reaction Biology Corp
T6 sequence (Q9HBY8 1-367): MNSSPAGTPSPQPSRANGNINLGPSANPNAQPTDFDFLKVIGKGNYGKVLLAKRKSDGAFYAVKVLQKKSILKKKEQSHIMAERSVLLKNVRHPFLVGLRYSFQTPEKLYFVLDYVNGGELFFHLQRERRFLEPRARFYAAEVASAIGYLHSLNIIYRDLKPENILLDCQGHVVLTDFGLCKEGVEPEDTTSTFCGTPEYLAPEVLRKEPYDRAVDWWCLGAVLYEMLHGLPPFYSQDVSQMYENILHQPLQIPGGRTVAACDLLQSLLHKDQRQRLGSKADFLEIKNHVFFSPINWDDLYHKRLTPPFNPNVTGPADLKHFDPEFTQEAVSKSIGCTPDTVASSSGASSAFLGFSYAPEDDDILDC
Outline: as §1

DRAK1/STK17A = molecular target: T7, DRAK1/STK17A (Homo sapiens, UniProt Q9UEE5)
T7 construct: purchased Reaction Biology Corp
T7 sequence (Q9UEE5 1-414): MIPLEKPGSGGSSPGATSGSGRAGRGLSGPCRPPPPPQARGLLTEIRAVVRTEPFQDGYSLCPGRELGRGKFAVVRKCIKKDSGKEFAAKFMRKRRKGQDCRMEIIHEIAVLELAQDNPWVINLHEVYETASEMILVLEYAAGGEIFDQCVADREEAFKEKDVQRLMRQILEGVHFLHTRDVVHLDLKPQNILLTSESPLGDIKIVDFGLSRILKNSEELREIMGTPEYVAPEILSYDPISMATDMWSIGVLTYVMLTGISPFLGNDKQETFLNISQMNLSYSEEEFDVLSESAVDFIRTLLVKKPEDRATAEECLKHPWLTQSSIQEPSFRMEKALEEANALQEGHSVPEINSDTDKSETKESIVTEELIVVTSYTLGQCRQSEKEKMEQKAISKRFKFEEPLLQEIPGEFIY
Outline: as §1

GRK1 = molecular target: T8, GRK1 (Homo sapiens, UniProt Q15835)
T8 construct: purchased Reaction Biology Corp
T8 sequence (Q15835 1-563): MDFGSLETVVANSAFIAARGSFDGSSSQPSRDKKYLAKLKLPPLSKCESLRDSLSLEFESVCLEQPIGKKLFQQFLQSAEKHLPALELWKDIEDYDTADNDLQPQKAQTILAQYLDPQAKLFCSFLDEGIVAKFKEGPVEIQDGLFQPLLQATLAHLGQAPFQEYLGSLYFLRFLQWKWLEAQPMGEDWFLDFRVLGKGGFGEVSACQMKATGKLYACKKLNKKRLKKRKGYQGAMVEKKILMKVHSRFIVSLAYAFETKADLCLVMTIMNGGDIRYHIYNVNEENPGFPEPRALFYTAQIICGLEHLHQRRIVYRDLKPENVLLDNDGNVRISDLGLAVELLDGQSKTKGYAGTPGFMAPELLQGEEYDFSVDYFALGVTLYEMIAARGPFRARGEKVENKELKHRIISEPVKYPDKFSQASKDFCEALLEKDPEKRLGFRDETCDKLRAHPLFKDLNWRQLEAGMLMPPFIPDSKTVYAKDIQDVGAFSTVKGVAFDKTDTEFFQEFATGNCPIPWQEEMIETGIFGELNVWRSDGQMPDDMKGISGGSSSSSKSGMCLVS
Outline: as §1

P38a/MAPK14 = molecular target: T9, P38a/MAPK14 (Homo sapiens, UniProt Q16539)
T9 construct: purchased Reaction Biology Corp
Outline: as §1

c-MET = molecular target: T10, c-MET (Homo sapiens, UniProt P08581)
T10 construct: purchased Reaction Biology Corp
Outline: as §1

[1] = read-out: % Enzyme Activity (relative to DMSO controls) AVG
[2] = read-out: % Enzyme Activity (relative to DMSO controls) Data 1
[3] = read-out: % Enzyme Activity (relative to DMSO controls) Data 2

T3 sequence (Q9BXA6 whole entry): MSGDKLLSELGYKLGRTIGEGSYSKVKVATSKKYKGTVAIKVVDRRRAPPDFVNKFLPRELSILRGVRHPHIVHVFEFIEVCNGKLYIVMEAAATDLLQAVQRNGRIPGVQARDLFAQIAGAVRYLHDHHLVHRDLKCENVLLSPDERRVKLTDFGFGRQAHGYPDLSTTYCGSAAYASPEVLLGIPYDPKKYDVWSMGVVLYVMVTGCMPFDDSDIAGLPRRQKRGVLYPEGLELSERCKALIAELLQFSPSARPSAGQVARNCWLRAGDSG
T10 sequence (P08581 25-1390): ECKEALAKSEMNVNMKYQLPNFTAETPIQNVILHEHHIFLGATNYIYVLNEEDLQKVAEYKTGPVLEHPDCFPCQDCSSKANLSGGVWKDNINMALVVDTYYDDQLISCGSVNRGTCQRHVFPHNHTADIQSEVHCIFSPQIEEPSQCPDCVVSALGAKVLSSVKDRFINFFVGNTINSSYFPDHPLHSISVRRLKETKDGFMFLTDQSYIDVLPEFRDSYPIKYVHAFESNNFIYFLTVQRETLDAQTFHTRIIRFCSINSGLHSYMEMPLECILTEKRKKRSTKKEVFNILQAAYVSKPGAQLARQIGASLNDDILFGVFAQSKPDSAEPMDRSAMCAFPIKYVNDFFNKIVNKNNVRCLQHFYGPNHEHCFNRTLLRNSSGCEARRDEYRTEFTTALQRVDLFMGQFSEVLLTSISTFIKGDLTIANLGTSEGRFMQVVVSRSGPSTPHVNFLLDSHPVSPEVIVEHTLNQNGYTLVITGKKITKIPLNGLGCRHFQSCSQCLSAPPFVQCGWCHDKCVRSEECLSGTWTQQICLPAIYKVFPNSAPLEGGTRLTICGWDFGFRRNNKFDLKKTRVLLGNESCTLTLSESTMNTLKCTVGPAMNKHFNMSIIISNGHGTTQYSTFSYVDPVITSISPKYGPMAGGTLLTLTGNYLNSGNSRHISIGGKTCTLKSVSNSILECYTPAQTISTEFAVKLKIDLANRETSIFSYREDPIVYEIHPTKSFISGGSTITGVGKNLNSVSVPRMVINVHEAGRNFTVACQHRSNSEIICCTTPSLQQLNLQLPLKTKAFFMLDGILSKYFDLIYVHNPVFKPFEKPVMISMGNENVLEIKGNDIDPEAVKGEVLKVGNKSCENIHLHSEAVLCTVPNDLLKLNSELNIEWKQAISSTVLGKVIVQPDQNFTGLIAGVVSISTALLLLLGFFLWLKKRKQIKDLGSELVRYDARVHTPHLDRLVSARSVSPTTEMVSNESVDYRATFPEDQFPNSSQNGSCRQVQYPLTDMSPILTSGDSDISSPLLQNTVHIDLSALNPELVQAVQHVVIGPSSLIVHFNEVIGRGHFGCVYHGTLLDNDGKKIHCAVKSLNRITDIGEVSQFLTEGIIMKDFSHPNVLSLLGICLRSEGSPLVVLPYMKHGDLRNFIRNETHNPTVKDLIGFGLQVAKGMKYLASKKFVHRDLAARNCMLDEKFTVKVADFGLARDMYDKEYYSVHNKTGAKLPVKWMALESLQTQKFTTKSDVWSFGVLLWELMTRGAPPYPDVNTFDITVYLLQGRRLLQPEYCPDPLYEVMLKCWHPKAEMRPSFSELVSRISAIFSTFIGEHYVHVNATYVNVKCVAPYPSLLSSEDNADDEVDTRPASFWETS
T9 sequence (Q16539 whole entry): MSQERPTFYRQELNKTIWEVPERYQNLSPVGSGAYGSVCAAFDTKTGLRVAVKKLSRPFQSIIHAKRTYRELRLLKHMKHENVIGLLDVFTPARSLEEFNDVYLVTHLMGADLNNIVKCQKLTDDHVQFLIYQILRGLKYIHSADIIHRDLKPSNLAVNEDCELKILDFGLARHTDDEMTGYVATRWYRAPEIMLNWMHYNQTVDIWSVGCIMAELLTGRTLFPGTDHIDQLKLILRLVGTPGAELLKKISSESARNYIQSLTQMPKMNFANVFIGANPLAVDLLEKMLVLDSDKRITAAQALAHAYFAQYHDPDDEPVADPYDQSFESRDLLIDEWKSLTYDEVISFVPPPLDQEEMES
T4 sequence (Q9P286 whole entry): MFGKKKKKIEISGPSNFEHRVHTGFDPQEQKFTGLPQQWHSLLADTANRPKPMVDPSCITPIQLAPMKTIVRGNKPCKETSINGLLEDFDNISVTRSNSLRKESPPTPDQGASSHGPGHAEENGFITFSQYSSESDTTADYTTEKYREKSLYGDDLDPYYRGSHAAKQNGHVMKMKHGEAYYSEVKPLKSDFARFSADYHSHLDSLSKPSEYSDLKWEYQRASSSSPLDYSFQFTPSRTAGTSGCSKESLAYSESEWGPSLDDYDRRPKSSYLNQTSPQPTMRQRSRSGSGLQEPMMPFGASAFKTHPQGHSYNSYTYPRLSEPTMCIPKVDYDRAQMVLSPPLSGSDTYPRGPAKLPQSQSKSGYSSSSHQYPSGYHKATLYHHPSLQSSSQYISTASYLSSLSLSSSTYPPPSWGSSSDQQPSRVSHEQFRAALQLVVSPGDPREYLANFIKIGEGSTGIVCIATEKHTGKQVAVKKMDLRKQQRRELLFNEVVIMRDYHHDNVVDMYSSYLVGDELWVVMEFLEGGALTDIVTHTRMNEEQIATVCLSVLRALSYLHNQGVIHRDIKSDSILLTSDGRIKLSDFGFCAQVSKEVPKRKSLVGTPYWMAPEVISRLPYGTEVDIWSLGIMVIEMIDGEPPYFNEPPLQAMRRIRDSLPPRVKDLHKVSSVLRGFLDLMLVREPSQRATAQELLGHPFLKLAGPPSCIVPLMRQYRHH
T5 sequence (P09619 33-1106): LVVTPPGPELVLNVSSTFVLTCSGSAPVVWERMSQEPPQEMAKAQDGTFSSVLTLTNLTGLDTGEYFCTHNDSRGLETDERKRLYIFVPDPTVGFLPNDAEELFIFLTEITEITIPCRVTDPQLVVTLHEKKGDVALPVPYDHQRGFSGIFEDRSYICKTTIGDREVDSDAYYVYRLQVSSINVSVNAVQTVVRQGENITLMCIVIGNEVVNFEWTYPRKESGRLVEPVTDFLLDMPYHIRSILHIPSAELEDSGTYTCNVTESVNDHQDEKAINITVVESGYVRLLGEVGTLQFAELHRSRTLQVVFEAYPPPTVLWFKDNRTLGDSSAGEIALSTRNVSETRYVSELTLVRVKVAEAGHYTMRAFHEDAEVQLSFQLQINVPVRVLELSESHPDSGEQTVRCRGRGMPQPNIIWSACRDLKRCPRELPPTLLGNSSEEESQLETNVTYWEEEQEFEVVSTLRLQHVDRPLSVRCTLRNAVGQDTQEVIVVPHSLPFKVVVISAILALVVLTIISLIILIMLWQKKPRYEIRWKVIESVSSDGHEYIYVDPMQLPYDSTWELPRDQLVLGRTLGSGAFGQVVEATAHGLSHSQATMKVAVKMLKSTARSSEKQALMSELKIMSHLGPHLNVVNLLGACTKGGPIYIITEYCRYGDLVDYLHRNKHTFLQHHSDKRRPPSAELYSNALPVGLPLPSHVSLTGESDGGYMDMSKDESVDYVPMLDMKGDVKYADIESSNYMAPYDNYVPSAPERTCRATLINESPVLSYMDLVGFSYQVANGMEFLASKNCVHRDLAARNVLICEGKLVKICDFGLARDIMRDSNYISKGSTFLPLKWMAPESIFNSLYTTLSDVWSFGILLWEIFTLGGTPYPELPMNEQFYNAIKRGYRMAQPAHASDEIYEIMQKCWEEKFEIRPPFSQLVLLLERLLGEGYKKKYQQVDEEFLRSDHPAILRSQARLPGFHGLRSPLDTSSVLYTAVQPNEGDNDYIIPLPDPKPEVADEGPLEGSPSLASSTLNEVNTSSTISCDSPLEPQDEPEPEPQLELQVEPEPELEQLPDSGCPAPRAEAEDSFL
T2 sequence (P00519 whole entry): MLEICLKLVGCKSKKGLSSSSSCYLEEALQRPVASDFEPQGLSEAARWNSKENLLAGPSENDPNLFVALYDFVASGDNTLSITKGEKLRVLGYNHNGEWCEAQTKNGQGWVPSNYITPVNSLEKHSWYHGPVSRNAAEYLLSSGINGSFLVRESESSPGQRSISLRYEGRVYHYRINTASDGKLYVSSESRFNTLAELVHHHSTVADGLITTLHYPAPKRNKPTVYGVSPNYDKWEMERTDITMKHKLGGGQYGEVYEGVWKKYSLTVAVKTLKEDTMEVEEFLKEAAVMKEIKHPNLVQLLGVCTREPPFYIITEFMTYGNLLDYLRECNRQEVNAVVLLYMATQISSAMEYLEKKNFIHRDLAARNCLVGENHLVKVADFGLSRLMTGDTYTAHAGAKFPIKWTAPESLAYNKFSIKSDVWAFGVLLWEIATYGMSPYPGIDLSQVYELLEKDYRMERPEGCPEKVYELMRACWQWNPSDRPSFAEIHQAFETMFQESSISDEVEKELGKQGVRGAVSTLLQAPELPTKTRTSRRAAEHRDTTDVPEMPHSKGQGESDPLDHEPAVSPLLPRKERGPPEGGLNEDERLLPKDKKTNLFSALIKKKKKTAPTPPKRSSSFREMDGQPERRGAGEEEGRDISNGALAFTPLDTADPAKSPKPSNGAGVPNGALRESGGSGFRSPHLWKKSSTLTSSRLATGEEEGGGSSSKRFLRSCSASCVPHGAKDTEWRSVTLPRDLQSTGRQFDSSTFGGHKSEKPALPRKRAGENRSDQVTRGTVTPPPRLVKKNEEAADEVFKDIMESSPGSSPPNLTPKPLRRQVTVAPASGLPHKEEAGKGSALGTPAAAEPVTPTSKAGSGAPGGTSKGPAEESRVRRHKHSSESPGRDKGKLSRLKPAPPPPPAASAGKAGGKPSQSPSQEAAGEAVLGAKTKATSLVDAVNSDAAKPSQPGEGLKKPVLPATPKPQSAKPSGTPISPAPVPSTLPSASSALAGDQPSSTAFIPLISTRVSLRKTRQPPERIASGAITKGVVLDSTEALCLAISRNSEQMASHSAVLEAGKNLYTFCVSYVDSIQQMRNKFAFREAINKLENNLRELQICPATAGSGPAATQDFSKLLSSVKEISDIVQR

SMILES: CC(C)(C)C(=O)N1N=CC[C@H]1c1ccccc1 [GSK′963]
- remaining activity at 10 µM (PKCzeta; [1]): 105%
- remaining activity at 10 µM (PKCzeta; [2]): 105%
- remaining activity at 10 µM (PKCzeta; [3]): 105%
- remaining activity at 10 µM (ABL1; [1]): 99.3%
- remaining activity at 10 µM (ABL1; [2]): 102%
- remaining activity at 10 µM (ABL1; [3]): 96.9%
- remaining activity at 10 µM (SSTK/TSSK6; [1]): 99%
- remaining activity at 10 µM (SSTK/TSSK6; [2]): 99.3%
- remaining activity at 10 µM (SSTK/TSSK6; [3]): 98.6%
- remaining activity at 10 µM (PAK5; [1]): 124%
- remaining activity at 10 µM (PAK5; [2]): 119%
- remaining activity at 10 µM (PAK5; [3]): 128%
- remaining activity at 10 µM (PDGFRb; [1]): 104%
- remaining activity at 10 µM (PDGFRb; [2]): 101%
- remaining activity at 10 µM (PDGFRb; [3]): 107%
- remaining activity at 10 µM (SGK2; [1]): 107%
- remaining activity at 10 µM (SGK2; [2]): 109%
- remaining activity at 10 µM (SGK2; [3]): 106%
- remaining activity at 10 µM (DRAK1/STK17A; [1]): 99.7%
- remaining activity at 10 µM (DRAK1/STK17A; [2]): 98.1%
- remaining activity at 10 µM (DRAK1/STK17A; [3]): 101%
- remaining activity at 10 µM (GRK1; [1]): 108%
- remaining activity at 10 µM (GRK1; [2]): 109%
- remaining activity at 10 µM (GRK1; [3]): 106%
- remaining activity at 10 µM (P38a/MAPK14; [1]): 94%
- remaining activity at 10 µM (P38a/MAPK14; [2]): 92.9%
- remaining activity at 10 µM (P38a/MAPK14; [3]): 95.2%
- remaining activity at 10 µM (c-MET; [1]): 94.5%
- remaining activity at 10 µM (c-MET; [2]): 90.7%
- remaining activity at 10 µM (c-MET; [3]): 98.3%
